Like-named read-outs stand apart in the source and are kept apart here.
Assays:
[1] = Plasma protein binding assay (rapid equilibrium dialysis), rat plasma; assay type: in vitro ADME; conditions: fraction bound, read-out: plasma protein binding Fb rat (converted)
Protocol: (§1) Test compound (10 μM) was incubated at 37 °C for 4 h with mouse, rat, or human plasma (Biowest) in the donor well of a rapid equilibrium dialysis plate (Thermo Fisher Scientific). PBS was placed in the acceptor well. To stop the assay, samples were collected from both wells, and an equal volume of plasma was added to the PBS sample, and vice versa. Proteins were then precipitated by adding three volumes of ice-cold methanol. Samples were mixed gently, kept at −20 °C for 30 min, and then stored at 4 °C overnight. The next day, the samples were centrifuged, and the supernatants were diluted with four volumes of 30% methanol in water. The samples were then analyzed using the Echo-MS system (SCIEX) with MRM transition monitoring, except for compound 3af, which was analyzed by LC–MS/MS as described in the plasma stability assay.

[2] = biological target: T1, human galectin-1 (Gal-1, full length) (Homo sapiens, UniProt P09382); test: Competitive fluorescence polarization assay, Gal-1; assay type: binding
T1 construct: Gal-1 is a prototype galectin consisting of a single CRD and was used in full length; 6xHis tag with TEV protease site (N, cleaved yes); made in house; host or cells: BL21 Escherichia coli (pET-15b)
Method in brief: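 Competitive fluorescence polarization (anisotropy) with a fluorescent probe; full-length Gal-1 and C-terminal CRD construct of Gal-3. Read after 30–60 min incubation at 25 °C. Kd fitted with Wang's exact cubic competitive model, rmin/rmax fixed from direct binding.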

[3] = test system: TGFβ-stimulated LX2 hepatic stellate cells; test: Antifibrotic efficacy: profibrotic gene expression in TGFβ-stimulated LX2 hepatic stellate cells (RT-qPCR); assay type: cell-based, human; conditions: TGFβ-stimulated LX2, 48 h, RT-qPCR normalized to ACTB
Protocol: LX2 cells were then stimulated with transforming growth factor-β1 (TGFβ1; PeproTech, Thermo Fisher Scientific) at 5 ng/mL to induce profibrotic signaling. […] After 48 h of treatment, cells were harvested into 100 μL RA1 buffer, and total RNA was then isolated using the NucleoSpin 96 RNA Kit (Macherey-Nagel, Düren, Germany) and reverse-transcribed into cDNA using the LunaScript RT SuperMix Kit (New England Biolabs, Ipswich, MA, USA). Quantitative real-time PCR (RT-qPCR) was used to determine mRNA expression levels of selected profibrotic markers: αSMA (ACTA2), collagen α-2(I) chain (COL1A2), and fibronectin 1 (FN1), and the housekeeping gene β-actin (ACTB). Amplification was carried out using Luna Universal qPCR Master Mix (New England Biolabs) and primer pairs for individual genes as follows: ACTA2: forward primer: [NT], reverse primer: [NT]; COL1A2: forward primer: [NT], reverse primer: [NT]; FN1: forward primer: [NT], reverse primer: [NT]; ACTB: forward primer: [NT], reverse primer: [NT] (Eurofins Genomics). Data were normalized to ACTB expression and analyzed using the ΔΔCt method.

[4] = Plasma protein binding, summary across species; assay type: in vitro ADME; conditions: summary across human, mouse and rat plasma
Protocol: as §1

[5] = test system: LPS-stimulated macrophage-like THP1 cells (TNFα secretion); test: Anti-inflammatory potential: TNFα secretion in LPS-stimulated PMA-differentiated THP1 cells; assay type: cell-based, human; conditions: (+)PMA THP1, 1 μg/mL LPS, 24 h, up to 300 μM
Protocol: Cells were differentiated overnight into macrophage-like phenotypes by treatment with 10 ng/mL PMA and subsequently stimulated with 1 μg/mL lipopolysaccharide (LPS; Invitrogen, Thermo Fisher Scientific) to induce a proinflammatory response. […] After 24 h of LPS and compound exposure, cell culture supernatants were collected and analyzed for TNFα levels using a bead-based multiplex immunoassay (ProcartaPlex Human Basic Kit and TNFα Human ProcartaPlex Simplex Kit, both Invitrogen, Thermo Fisher Scientific). Flow cytometry readout was used as previously described. TNFα concentrations were calculated using a standard curve generated in GraphPad Prism 10 (GraphPad Software, San Diego, CA). Cells or beads from screening assays prepared for flow cytometry were analyzed by the CytoFlex S instrument (Beckman Coulter). Data acquisition was performed using CytExpert software (v2.5, Beckman Coulter). Debris was excluded by forward and side scatter gating, followed by doublet exclusion. Data were analyzed using FlowJo software (v10, BD Biosciences).

T1 sequence (P09382 2-135): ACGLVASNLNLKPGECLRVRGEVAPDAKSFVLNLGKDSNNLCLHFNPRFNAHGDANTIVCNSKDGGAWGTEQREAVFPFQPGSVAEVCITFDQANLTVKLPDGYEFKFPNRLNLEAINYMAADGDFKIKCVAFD

Question: With `CC(=O)N(c1cc(C(=O)O)cc2[nH]ccc12)[C@@H]1O[C@H](CO)[C@@H](S[C@@H]2O[C@H](CO)[C@H](O)[C@H](n3cc(-c4cccc(F)c4)nn3)[C@H]2O)[C@H](O)[C@H]1O` [Compound 11, N-[4-S-(3-Deoxy-3-(4-(3-fluorophenyl)-1H-1,2,3-triazol-1-yl)-β-D-galactopyranosyl)-4-thio-β-D-glucopyranosyl]-N-(6-carboxy-1H-indol-4-yl)acetamide] as the compound, how does the fraction unbound at 4 h, 10 μM [1] read?
Answer: 0.1

Question: What about the IC50 ([2]; CSV supplement, unrounded mean, read-out: Gal1_IC50_mean_uM) of the same compound?
Answer: 4.34 µM

Question: And the Kd ([2]; CSV supplement, unrounded mean, read-out: Gal1_Kd_mean_uM)?
Answer: 2.18 µM

Question: What about the Kd ([2]; competitive fluorescence polarization, mean ± SD, read-out: Kd Gal-1) of the same compound?
Answer: 2.2 ± 0.3 µM

Question: What about the IC50 ([2]; four-parameter logistic model, mean ± SD, read-out: IC50 Gal-1) of the same compound?
Answer: 4.3 ± 0.2 µM

Question: And the “ACTA2 mRNA expression” value [3]?
Answer: dose-dependent downregulation

Question: And the “COL1A2 mRNA expression” value [3]?
Answer: dose-dependent downregulation

Question: And the “FN1 mRNA expression” value [3]?
Answer: dose-dependent downregulation

Question: And the fraction unbound at 4 h, 10 μM [4]?
Answer: 0.1 to 0.78

Question: And the “LPS-induced TNFα secretion” value [5]?
Answer: no suppression
